This note sets out measurements from ChEMBL document CHEMBL1127015, “Centrally acting serotonergic and dopaminergic agents. 1. Synthesis and structure-activity relationships of 2,3,3a,4,5,9b-hexahydro-1H-benz[e]indole derivatives” (J Med Chem, 1993).

Assay [1] has as its target T1, D(2) dopamine receptor (Homo sapiens, UniProt P14416). Put plainly: Intrinsic activity from GTP shift using membranes from CHO cells transfected with mammalian dopamine receptor D2. The assay is classed as cell membranes.
The test system of assay [2] is Mus musculus. Put plainly: Effective dose on hypothermia in mouse when administered subcutaneously. The assay is classed as functional. To be noted: sc.
Assay [3] addresses T2, D(2) dopamine receptor (Rattus norvegicus, UniProt P61169). Briefly: Inhibitory concentration against [3H]raclopride-labeled dopamine receptor D2 in rat striatum. It counts as tissue-based.
In assay [4] the test system is Mus musculus. Briefly: Maximum decrease in temperature when compound is administered through peroral route. The assay is classed as functional.
Assay [5] deals with Mus musculus. Put plainly: Effective dose on hypothermia in mouse when administered through peroral route. The assay is classed as functional. To be noted: po.
In assay [6] the test system is Mus musculus. Put plainly: Maximum decrease in temperature when compound is administered subcutaneously. It counts as functional.
The target in assay [7] is T2, D(2) dopamine receptor. Briefly: Binding affinity against [3H]raclopride-labeled dopamine receptor D2 in rat striatum. The assay is classed as tissue-based.
Assay [8] relates to Mus musculus. Put plainly: Antagonism of apomorphine effects for 10-20 minutes in reserpinized mice following 0.4 umol/kg i.p. It counts as functional.
Assay [9] concerns Mus musculus. Briefly: Antagonism of apomorphine in reserpinized mice when a dose of 38 micro mol/kg is administered intraperitoneally. It counts as functional.
The target in assay [10] is T1, D(2) dopamine receptor. Put plainly: Binding affinity against [3H]U-86,170-labeled dopamine receptor D2 in cloned CHO cells. The assay is classed as cell-based.
The subject of assay [11] is Mus musculus. Briefly: Ability to stimulate dopaminergic systems by effect on locomotor activity in reserpinized mice when a dose of 3.8 micro mol/kg is administered intraperitoneally. The assay is classed as functional.
Assay [12] has as its system Mus musculus. Put plainly: Ability to stimulate dopaminergic systems by effect on locomotor activity in reserpinized mice when a dose of 38 micro mol/kg is administered intraperitoneally. It counts as functional.
Assay [13] concerns Mus musculus. Put plainly: Increase in locomotor activity in reserpinized mice following 0.4 umol/kg i.p. It counts as functional.
Assay [14] concerns Mus musculus. Briefly: Antagonism of apomorphine for 10-20 minutes in reserpinized mice when a dose of 3.8 micro mol/kg is administered intraperitoneally. It counts as functional.
Assay [15] concerns Mus musculus. Put plainly: Antagonism of apomorphine for 0-10 minutes in reserpinized mice when a dose of 3.8 micro mol/kg is administered intraperitoneally. The assay is classed as functional.
For assay [16], the system named is Mus musculus. Put plainly: Antagonism of apomorphine effects for 0-10 minutes in reserpinized mice following 0.4 umol/kg i.p. The arrangement: unit not given beside the values. It counts as functional.
The subject of assay [17] is Mus musculus. Briefly: Antagonism of apomorphine for 0-10 minutes in reserpinized mice when a dose of 38 micro mol/kg is administered intraperitoneally. It counts as functional.
Assay [18] has as its system Mus musculus. Put plainly: Antagonism of apomorphine effects in reserpinized mice following 0.4 umol/kg i.p. It counts as functional.
Assay [19] concerns Mus musculus. Put plainly: Antagonism of apomorphine for 10-20 minutes in reserpinized mice when a dose of 38 micro mol/kg is administered intraperitoneally. It counts as functional.
In assay [20] the test system is Mus musculus. Briefly: Antagonism of apomorphine in reserpinized mice when a dose of 3.8 micro mol/kg is administered intraperitoneally. The assay is classed as functional.
The test system of the next assay is Rattus norvegicus. Briefly: Inhibition of firing rates of dopaminergic neurons in the substantia nigra pars compacta by intravenous injection in rats. It counts as functional. To be noted: Rattus norvegicus, Substantia nigra pars compacta, iv; read-out: ED50.

T1 sequence (P14416 whole entry): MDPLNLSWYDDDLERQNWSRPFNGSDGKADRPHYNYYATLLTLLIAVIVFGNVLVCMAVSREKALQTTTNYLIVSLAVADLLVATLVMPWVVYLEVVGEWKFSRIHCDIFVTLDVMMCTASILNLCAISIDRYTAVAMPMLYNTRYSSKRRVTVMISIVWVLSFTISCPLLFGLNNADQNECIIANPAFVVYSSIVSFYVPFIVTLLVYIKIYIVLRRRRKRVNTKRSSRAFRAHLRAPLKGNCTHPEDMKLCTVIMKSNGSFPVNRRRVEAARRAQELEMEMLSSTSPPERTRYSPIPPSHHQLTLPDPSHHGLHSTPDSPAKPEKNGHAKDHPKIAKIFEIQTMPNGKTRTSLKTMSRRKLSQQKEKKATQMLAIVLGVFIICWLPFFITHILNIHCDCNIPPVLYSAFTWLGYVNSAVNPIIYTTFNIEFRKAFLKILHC
T2 sequence (P61169 whole entry): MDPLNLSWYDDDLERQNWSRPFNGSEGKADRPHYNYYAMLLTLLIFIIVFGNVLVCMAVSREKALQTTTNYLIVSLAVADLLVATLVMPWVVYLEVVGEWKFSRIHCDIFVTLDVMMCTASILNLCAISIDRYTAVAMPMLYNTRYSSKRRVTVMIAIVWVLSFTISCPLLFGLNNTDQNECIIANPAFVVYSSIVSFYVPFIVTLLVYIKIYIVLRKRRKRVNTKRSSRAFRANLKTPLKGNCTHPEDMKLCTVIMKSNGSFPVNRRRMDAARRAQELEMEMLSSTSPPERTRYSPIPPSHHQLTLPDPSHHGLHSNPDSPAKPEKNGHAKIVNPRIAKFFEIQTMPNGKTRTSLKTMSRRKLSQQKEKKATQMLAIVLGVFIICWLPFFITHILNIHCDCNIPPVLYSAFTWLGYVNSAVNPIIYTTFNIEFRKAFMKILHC

As a reminder, the ED50 is the dose that gives a 50% effect, or the effect in half of the subjects. Broadly, the IC50 is the concentration at which inhibition is half-maximal. Take `CCCN1CC[C@@H]2c3c(O)cccc3CC[C@@H]21`: at D(2) dopamine receptor [1], the Intrinsic activity worked out at 0%. The results for the ED50 with Mus musculus [2] and with Mus musculus [5] were 0.05 µmol/kg and 21 µmol/kg, respectively. At D(2) dopamine receptor [3], this compound showed an IC50 of over 1000 nM. For the same compound, the Max temperature decrease was determined as 5.5 in the assay on Mus musculus [4] and 8.5 in the assay on Mus musculus [6].
A word on the Ki: it is a measure of affinity in units of concentration, obtained from inhibition or displacement. As for `CCCN1CC[C@@H]2c3c(cccc3OC)CC[C@@H]21`, at D(2) dopamine receptor [7], the inhibition constant (Ki) was over 1000 nM.
As to `C=CCN1CC[C@@H]2c3c(O)cccc3CC[C@H]21` (racemic), the Locomotor activity with Mus musculus [8] stood at 66; with Mus musculus [9] it was 9; with Mus musculus [11], 5; in the assay with Mus musculus [12], 1; with Mus musculus [13], 26; with Mus musculus [14], 53. Also, the Locomotor activity with Mus musculus [15] is 71; in the assay with Mus musculus [16], 46; in the assay on Mus musculus [17], 49; with Mus musculus [18] it was 73; in the assay on Mus musculus [19], 33; with Mus musculus [20], 5. Besides, on D(2) dopamine receptor [10], affinity was put at a Ki of 25 nM. At D(2) dopamine receptor [1], the Intrinsic activity was 13%.
Consider `C=CCN1CC[C@H]2c3cccc(O)c3CC[C@H]21` (racemic), for which the Locomotor activity in the assay with Mus musculus [8] amounted to 111; in the assay with Mus musculus [9] it was 21; in the assay with Mus musculus [11], 8; in the assay on Mus musculus [12] it was 12; in the assay on Mus musculus [13], 0; with Mus musculus [14], 111. The Locomotor activity in the assay on Mus musculus [15] stood at 88; in the assay with Mus musculus [16] it was 101; in the assay on Mus musculus [17] it was 32; in the assay with Mus musculus [18], 130; in the assay with Mus musculus [19], 52; with Mus musculus [20] it was 111. Also, the Ki stood at 75 nM on D(2) dopamine receptor [10] and 198 nM at D(2) dopamine receptor [7]. Moreover, at D(2) dopamine receptor [1], the Intrinsic activity was 29%.
Turning to `C=CCN1CCC2c3cccc(O)c3CC[C@@H]21` (single isomer, unassigned; (+)), the Locomotor activity in the assay with Mus musculus [8] was determined as 76; in the assay with Mus musculus [9], 62; in the assay on Mus musculus [11] it was 42; in the assay on Mus musculus [12], 17; in the assay with Mus musculus [13], 11; with Mus musculus [14], 90. Besides, the Locomotor activity with Mus musculus [15] amounted to 54; in the assay with Mus musculus [16], 50; with Mus musculus [17], 20; with Mus musculus [18], 79; in the assay on Mus musculus [19], 37; with Mus musculus [20] it was 62. For the same compound, the Ki is 59 nM at D(2) dopamine receptor [10] and 259 nM at D(2) dopamine receptor [7]. Further, the Intrinsic activity on D(2) dopamine receptor [1] was found to be 50%. Besides, the ED50 with Rattus norvegicus came out at 2.82 µmol/kg.
As to `CCCN1CC[C@H]2c3c(O)cccc3CC[C@H]21`, the ED50 worked out at 0.3 µmol/kg in the assay on Mus musculus [2] and 4.9 µmol/kg in the assay on Mus musculus [5]. Moreover, at D(2) dopamine receptor [3], the 50% inhibitory concentration (IC50) was over 1000 nM. The results for the Max temperature decrease in the assay on Mus musculus [4] and with Mus musculus [6] were 7.3 and 5.5, respectively.
As for `C=CCN1CC[C@@H]2c3cccc(OC)c3CC[C@@H]21`, in the assay with Rattus norvegicus, the ED50 was over 3.6 µmol/kg.
At D(2) dopamine receptor [10], `COc1cccc2c1C1CCN(CCc3ccccc3)[C@@H]1CC2` (stereo not given in full) yielded a Ki of over 339 nM.
In the case of `CN(C)CCCN1c2ccccc2Sc2ccc(Cl)cc21` [CHLORPROMAZINE], the Intrinsic activity at D(2) dopamine receptor [1] was 5%.
